The values that follow come from PMC4425616 (Nature medicine, 2015).

In data set [1] the target is T1, Pin1 (Homo sapiens, UniProt Q13526). The data set is classed as binding. To be noted: incubation 0.5 hour.
Data set [2] deals with FKBP12 (FK506-binding protein 12) (Homo sapiens, UniProt P62942). Kind of data set: Binding of fluorescently-labeled pTide to FKBP12.
The target in data set [3] is T1, Pin1. Kind of data set: Binding of.
For data set [4], the target named is T1, Pin1. To be noted: cited from earlier work.
For a further data set, the system named is breast cancer cells. Kind of data set: Growth and Pin1 degradation in breast cancer cells, combinations with ATRA. The data set is classed as cell-based, human.
Data set [5] deals with APL cells isolated from hCG-PML-RARα transgenic mice. The conditions noted are these: 3 weeks treatment.
In data set [6] the target is T1, Pin1. Kind of data set: Immunoblotting for Pin1 in NB4 cells. The format is cell-based. To be noted: 72 h.
The subject of the next data set is human APL NB4 cells. Kind of data set: APL cell differentiation. The data set is classed as cell-based. To be noted: 72 h.
For data set [7], the system named is PML-RARα. Kind of data set: Immunoblotting for PML-RARα in NB4 cells. The format is cell-based, human. The conditions noted are these: 72 h.
For a further data set, the target named is FKBP12 (Homo sapiens, UniProt P62942). Kind of data set: Chymotrypsin coupled PPIase activity assay. The format is biochemical.
FKBP12, sequence (P62942 whole entry, species assumed): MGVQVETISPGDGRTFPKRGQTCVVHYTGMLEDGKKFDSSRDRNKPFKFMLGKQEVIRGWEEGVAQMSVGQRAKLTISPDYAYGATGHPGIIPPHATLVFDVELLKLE
In a further data set the test system is cyclophilin. Kind of data set: Chymotrypsin coupled PPIase activity assay. The data set is classed as biochemical.
Data set [8] concerns the target Pin1 (Mus musculus, UniProt Q9QUR7). Kind of data set: Pin1 protein, mRNA and half-life in MEFs. The data set is classed as cell-based. To be noted: for Pin1 protein half-life: 50 μM, 24 h, cycloheximide chase.
The test system of the next data set is cyclin D1 promoter. Kind of data set: Cyclin D1 promoter-driven luciferase reporter assay. The data set is classed as cell-based. The conditions noted are these: SKBR3 cells, 72 h.
The next data set deals with MCF10A cells. Kind of data set: Colorimetric MTT assay. The format is cell-based, human. The conditions noted are these: 72 h. For orientation: Tetrazolium assays rely on reduction of a dye to a coloured formazan, in cell work by metabolically active cells.
Data set [9] deals with PML-RARα. Kind of data set: Immunostaining of bone marrow of APL patients treated with ATRA. The data set is classed as in vivo, human.
For a further data set, the system named is Pin1 WT MEFs. Kind of data set: MTT cell growth assay. The data set is classed as cell-based, mouse. The conditions noted are these: 72 h.
The target in data set [10] is T1, Pin1. Kind of data set: Immunostaining of bone marrow of APL patients treated with ATRA. The format is in vivo.
The conditions of data set [11]: standard doses in human patients; cited from earlier work.
The test system of another data set is Pin1 KO MEFs. Kind of data set: MTT cell growth assay. The conditions noted are these: 72 h, compared with WT MEFs. The data set is classed as cell-based, mouse.
Another data set concerns SKBR3 cells. Kind of data set: Foci formation assay. The format is cell-based. To be noted: 48 h.
A further data set concerns NIH 3T3 cells. Kind of data set: Centrosome amplification induced by Pin1 overexpression. The data set is classed as cell-based. The conditions noted are these: 72 h.
The next data set concerns MDA-MB-468 cells. Kind of data set: MDA-MB-468 xenograft in nude mice. The data set is classed as in vivo. To be noted: ATRA-releasing pellets.
The test system of data set [12] is Pin1 and its substrate oncogenes and tumor suppressors. The data set is classed as cell-based, human. The conditions noted are these: 72 hr.
The test system of a further data set is HMLE cells. Kind of data set: Colorimetric MTT assay. The data set is classed as cell-based, human. The conditions noted are these: 72 h.
In another data set the test system is MDA-MB-231 cells. Kind of data set: MDA-MB-231 xenograft in nude mice. The data set is classed as in vivo.
In data set [13] the target is T1, Pin1. Kind of data set: Photoaffinity labeling of Pin1 with [3H]ATRA. The data set is classed as binding. The conditions noted are these: SDS gels.
Setting [14] is: three ATRA-sensitive cancer cell lines.

pKd: −log10 of the molar value. Read-outs that look alike come from different tables or passages of the source.

T1 sequence (Q13526 whole entry): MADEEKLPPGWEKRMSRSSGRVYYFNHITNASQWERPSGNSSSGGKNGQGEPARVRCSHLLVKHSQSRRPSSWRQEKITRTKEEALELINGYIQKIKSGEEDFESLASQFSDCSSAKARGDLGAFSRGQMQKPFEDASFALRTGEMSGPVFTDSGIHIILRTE
Pin1 (Mus musculus, UniProt Q9QUR7), sequence (Q9QUR7 whole entry): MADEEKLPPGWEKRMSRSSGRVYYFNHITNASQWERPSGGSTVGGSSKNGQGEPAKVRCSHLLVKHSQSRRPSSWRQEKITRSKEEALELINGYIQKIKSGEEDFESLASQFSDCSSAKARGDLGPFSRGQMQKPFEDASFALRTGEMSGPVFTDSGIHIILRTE
FKBP12 (FK506-binding protein 12), sequence (P62942 whole entry, species assumed): as the sequence (P62942 whole entry, species assumed) above

For `CC1=C(/C=C/C(C)=C/C=C/C(C)=C/C=O)C(C)(C)CCC1` [retinal], at Pin1 [1], the “Pin1 binding (FP assay)” value was “totally inactive”.

Usually pKd stands for the Kd on a negative log10 scale, so that one unit is a factor of ten. With Bth-D-phos.Thr-Pip-Nal [pTide], the “binding of fluorescently-labeled pTide to FKBP12” value in data set [2] is “not to FKBP12”. For the same compound, the “binding of fluorescently-labeled pTide to Pin1” value on Pin1 [3] is “bound to Pin1”. Besides, the pKd at Pin1 [4] is 8.92.

Take `CCCCCCCOc1cc2c(cc1/C(C)=C/c1ccc(C(=O)O)cc1)C(C)(C)CCS2(=O)=O` [Ro-415253]: at Pin1 [1], the “Pin1 binding (FP assay)” value is “minimal Pin1 binding”. Also, the “effect on the ability of ATRA to induce Pin1 degradation or inhibit proliferation” value in the data set with breast cancer cells is recorded as “neither had obvious effects”.

Consider `CC1=C(/C=C/C(C)=C/C=C/C(C)=C/CO)C(C)(C)CCC1` [retinol], for which, on Pin1 [1], the “Pin1 binding (FP assay)” value was “totally inactive”.

For `O=C(O[C@@H]1Cc2c(O)cc(O)cc2O[C@@H]1c1cc(O)c(O)c(O)c1)c1cc(O)c(O)c(O)c1` [EGCG], in data set [5], the “PML-RARα in the bone marrow” value is “effectively reduced PML-RARα in the bone marrow”, the “condition of treated mice” value is on record as “rather sick” and the spleen weights entry is on record as “spleen weights nearly at basal levels”. The Pin1 abundance result at Pin1 [6] was “inhibited Pin1 without degrading it”. The “induction of APL cell differentiation” value in the data set with human APL NB4 cells is given as “neither Pin1 inhibitors nor Pin1 shRNA induced human APL cell differentiation”. Moreover, in the data set with PML-RARα [7], the PML-RARα abundance entry is on record as “dose-dependently reduced PML-RARα”.

As to `CC(=O)OC/C=C(C)/C=C/C=C(C)/C=C/C1=C(C)CCCC1(C)C` [retinyl acetate], the “Pin1 binding (FP assay)” value on Pin1 [1] is “totally inactive”.

As for `CC1=C(/C=C/C(C)=C/C=C/C(C)=C/C(=O)Nc2ccc(O)cc2)C(C)(C)CCC1` [fenretinide], the “Pin1 binding (FP assay)” value on Pin1 [1] is given as “only marginal Pin1 binding”.

For the compound `Clc1cccc(C(c2ccc3[nH]cnc3c2)n2ccnc2)c1` (centres unmarked) [liarazole], the “effect in combination with ATRA on cell growth” value in the data set with breast cancer cells is reported as “generally additive effects with ATRA”.

Consider `CC1=C(/C=C/C(C)=C/C=C/C(C)=C\C(=O)O)C(C)(C)CCC1` [13cRA, 13-cis-retinoic acid], for which the “inhibition of FKBP12 PPIase activity” value against FKBP12 was “neither inhibited”. In addition, the “inhibition of cyclophilin PPIase activity” value in the data set with cyclophilin is “neither inhibited”. On Pin1 [8], the Pin1 protein half-life entry is listed as “reduced Pin1 protein half-life”.

`CC1=C(/C=C/C(C)=C/C=C/C(C)=C/C(=O)O)C(C)(C)CCC1` [ATRA, all-trans retinoic acid]: the “inhibition of Pin1-induced activation of the cyclin D1 promoter” value in the data set on cyclin D1 promoter was “dose-dependently and fully inhibited”. The “cell proliferation, susceptibility to ATRA” value in the data set on MCF10A cells and in the data set with HMLE cells was “highly resistant to ATRA” throughout. The “PML-RARα remaining after treatment” value with PML-RARα [9] (3 days of ATRA treatment) is on record as ~ 40%; with PML-RARα [9] (10 days of ATRA treatment), less than 10%. The “inhibition of FKBP12 PPIase activity” value against FKBP12 is “neither inhibited”. Besides, the inhibition of growth result in the data set with Pin1 WT MEFs is “Relatively high concentrations of ATRA were required”; in the data set on Pin1 KO MEFs it was “more resistant to ATRA”. On Pin1 [1], the “Pin1 binding (FP assay)” value is “most potent”. Also, the entries for the “Pin1 remaining after treatment” value on Pin1 [10] (3 days of ATRA treatment) and on Pin1 [10] (10 days of ATRA treatment) were ~ 40% and less than 10%, respectively. The drug concentration produced in [11] is 1200 nM. The “inhibition of Pin1-enhanced foci formation” value in the data set with SKBR3 cells was “dose-dependently and fully inhibited”. Further, the “inhibition of Pin1 overexpression-induced centrosome amplification” value with NIH 3T3 cells is “dose-dependently and fully inhibited”. In addition, the “abundance of Pin1 and cyclin D1 in tumors” value in the data set on MDA-MB-468 cells was “reduced abundance of Pin1 and its substrate cyclin D1”; with MDA-MB-231 cells (ATRA-releasing pellets), “reduced abundance of Pin1 and its substrate cyclin D1”. Besides, in data set [5], the “PML-RARα in the bone marrow” value was “effectively reduced PML-RARα in the bone marrow”. Further, in [5], the “Pin1 levels in the bone marrow” value is reported as “reduced Pin1 levels in the bone marrow”. Moreover, the spleen weights result in data set [5] is “spleen weights nearly at basal levels”. In addition, in the data set with cyclophilin, the “inhibition of cyclophilin PPIase activity” value is “neither inhibited”. Further, the “effects on Pin1 and substrate proteins” value in data set [12] (MCF10A cells) is “no appreciable effects”. The “abundance of Pin1 and substrate oncogenes (cyclin D1, HER2, ERα, Akt, NFκB p65, c-Jun, PKM2)” value in data set [12] (setting [14]) was “dose-dependent decrease in abundance of Pin1 and its substrate oncogenes”. Moreover, the “abundance of Pin1 substrate tumor suppressors (Smad2/3, SMRT)” value in [12] (setting [14]) is reported as “increase in abundance of Pin1 substrate tumor suppressors”. Besides, the Pin1 protein half-life result on Pin1 [8] is on record as “reduced Pin1 protein half-life”. Besides, the “Pin1 mRNA levels” value at Pin1 [8] (72 h, quantitative RT-PCR) is given as “no obvious effects”. Further, the Pin1 protein abundance entry on Pin1 [8] (WT Pin1, 72 h, immunoblotting) is reported as “dose-dependently down-regulated”. Further, the antitumor activity entry with MDA-MB-231 cells (33.0 μmol/kg intraperitoneally 3 times a week for 8 weeks) is listed as “only modest antitumor activity”. Moreover, the “growth of tumors from MDA-MB-231 cells stably expressing Pin1” value in the data set with MDA-MB-231 cells (ATRA implants for 7 weeks) is reported as “effectively inhibited by ATRA in a dose-dependent manner”. Besides, in the data set with PML-RARα [7], the PML-RARα abundance entry is recorded as “dose-dependently reduced PML-RARα”.

In the case of `O=C1C=CC(=O)c2c(O)cccc21` [Juglone], in data set [5], the “PML-RARα in the bone marrow” value is reported as “effectively reduced PML-RARα in the bone marrow”, the “condition of treated mice” value is “rather sick” and the spleen weights result was “spleen weights nearly at basal levels”. Further, the Pin1 abundance result on Pin1 [6] is on record as “inhibited Pin1 without degrading it”. Besides, the “induction of APL cell differentiation” value in the data set on human APL NB4 cells is reported as “neither Pin1 inhibitors nor Pin1 shRNA induced human APL cell differentiation”. For the same compound, the PML-RARα abundance result in the data set on PML-RARα [7] is recorded as “dose-dependently reduced PML-RARα”.

As to `C=C(c1ccc(C(=O)O)cc1)c1cc2c(cc1C)C(C)(C)CCC2(C)C` [bexarotene], on Pin1 [1], the “Pin1 binding (FP assay)” value is reported as “only marginal Pin1 binding”.

At Pin1 [13], `CC1=C(/C=C/C(C)=C/C=C/C(C)=C/C(=O)O)C(C)(C)CCC1` [[^3H]-ATRA, all-trans-[11,12-3H]retinoic acid] showed a pKd of 6.10.

Turning to `CCOC(=O)CN1C(=O)c2ccc3c4c(ccc(c24)C1=O)C(=O)N(CC(=O)OCC)C3=O` [PiB], the Pin1 abundance entry on Pin1 [6] is “inhibited Pin1 without degrading it”. Also, the “induction of APL cell differentiation” value with human APL NB4 cells is “neither Pin1 inhibitors nor Pin1 shRNA induced human APL cell differentiation”. The PML-RARα abundance entry in the data set with PML-RARα [7] is “dose-dependently reduced PML-RARα”.
